Source: PMC10197068 (Bioconjugate Chemistry, 2023)
Each block holds one compound with its values, some of them ahead of it.

Legend:
[1] = tested on: G2T6 (Na+) dimeric HTelo G4 DNA; experiment: Emission titration with G2T6 (Na+); format: binding, human; settings: Table S2, unit not given, ligand 2 μM, 100 mM NaCl, 10 mM Li cacodylate, pH 7.3, exc 440 nm, em 590 nm, triplicate
Description: (§1) Next, emission titrations were carried out with the emissive Pt^II compounds M2 and D3–8 and G4/duplex DNA to obtain association constants. Both Na^+ and K^+ stabilized monomeric and dimeric G4 DNA were investigated. Additionally, titrations were carried out with CT-DNA to evaluate the selectivity for G4 versus duplex DNA. Figure 5 summarizes the obtained results (see Figures S24–S37 and Table S2 for a full set of titration data). First discussed are the experiments conducted in Na^+ buffer, in which the G4 topology formed is antiparallel.[41] […] As discussed previously, this could potentially be caused by a “sandwiched” binding mode in which the metal-salphen complex sits between two G-quadruplex units. For dimeric metal-salphen complexes D3–8, however, there are several differences when compared to the CD melting studies. […] Upon increasing the linker length to a two-amino-acid sequence (RR and KK for compounds D4 and D5, respectively), larger Ka values were obtained with minimal change to the pattern of selectivity. […] Increasing the linker length to an eight-amino-acid sequence (RRRRRRRR) led to a similar stabilization of G2T6, while G1 stabilization increased.
(§2) G-Quadruplex oligonucleotides were purchased from Eurogentec (Belgium), and CT-DNA was purchased from Sigma-Aldrich. Stock solutions were prepared via dilution in the appropriate buffers to concentrations of 300–400 μM determined by UV–vis measurements in which increasing amounts of DNA were added to a cuvette and the absorbance at 260 nm recorded using an Agilent Cary UV 60 spectrometer. Prior to use, the DNA stock solutions were annealed by heating at 95 °C for 5 min and then cooling to room temperature overnight.
(§3) Experiments were carried out using a BMG Clariostar Microplate reader with Greiner Bio-One half-volume (100 μL/well) plates. Excitation was carried out at 440 nm and recorded from 500 to 700 nm in addition to a matrix scan at 590 nm. Titrations were carried out using G1, G2T1, and G2T6 (Na^+) G4 DNA (100 mM NaCl, 10 mM Li cacodylate, pH 7.3); G1, G2T1, and G2T6 (K^+) G4 DNA (100 mM KCl, 10 mM Li cacodylate, pH 7.3); and CT-DNA (100 mM KCl, 10 mM Li cacodylate, pH 7.3). Ligand concentration was kept constant at 2 μM, and the following DNA equivalents were tested: 0, 0.1, 0.2, 0.3, 0.4, 0.5, 0.75, 1, 1.5, 2, 3, and 5 (for CT-DNA 10× base pair equivalents were used, i.e., 1 to 50 BPE). Sample preparation was carried out by preparing stock solutions of double concentration ligand (4 μM) and DNA in the appropriate buffer, before 50 μL of each was added to the appropriate well and mixed. Experiments were conducted in triplicate and binding constants were obtained by curve fitting in Graphpad Prism 8 using eq 1.[46] [drawing 1] 1
(§4) Fluorescence response (y) was fitted against DNA concentration (x); R is the machine response, K is the association constant of ligand and DNA, L is the concentration of ligand, and n is the number of binding sites per DNA. The values of L and n were varied so that that the L was equal to the number of salphen units and n was equal to the number of G4 faces per DNA. The matrix scan results were used to plot the titration curves and 500–700 nm scan results were used to confirm that expected curve shapes and shifts were observed.

[2] = tested on: human osteosarcoma U2OS cells
Description: Cytotoxicity studies of compounds were carried out on a U-2 OS cell line (human osteosarcoma cells). These cells were grown on culture medium McCoy’s 5A Medium supplemented with 10% FBS (Fetal Bovine Serum) in an atmosphere of 95% air and 5% CO2 at 37 °C. Inhibition of cell growth induced by the tested compound was evaluated using a MTT assay. The cells were seeded in a sterile 96-well plate at a density of 15,000 cells per well and incubated for 24 h in growth medium. Afterward, the compound dissolved in H2O or DMSO was added to the cells maintaining the same proportion of solvent in each well. After 48 h of incubation in an atmosphere of 95% air and 5% CO2 at 37 °C, 10 μL of 5 mg/mL MTT prepared in PBS (0.136 M NaCl, 1.47 mM KH2PO4, 8 mM NaH2PO4, and 2.68 mM KCl) was added to each well, and the cell plate was incubated for another 4 h. […] Finally, absorbance of the cell plate was measured at a wavelength of 595 nm (Tecan M1000 infinite Pro). […] The absorbance measurement range was assessed between one value (average of triplicate points) containing 15,000 cells in McCoy’s 5A medium and in the absence of growth factors (which allows to determine the stable cell concentration) and another value (average of triplicate points) containing the usual growth medium (which allows to measure the maximum cell growth at 48 h). […]

[3] = tested on: G1 (K+) monomeric HTelo G4 DNA; experiment: Emission titration with G1 (K+); format: binding, human; settings: Table S2, unit not given, ligand 2 μM, 100 mM KCl, 10 mM Li cacodylate, pH 7.3, exc 440 nm, em 590 nm, triplicate
Description: as §1, §2, §3, §4

[4] = tested on: G2T6 (K+) dimeric HTelo G4 DNA; experiment: Emission titration with G2T6 (K+); format: binding, human; settings: Table S2, unit not given, ligand 2 μM, 100 mM KCl, 10 mM Li cacodylate, pH 7.3, exc 440 nm, em 590 nm, triplicate
Description: as §1, §2, §3, §4

[5] = tested on: G2T1 (Na+) dimeric HTelo G4 DNA; experiment: Emission titration with G2T1 (Na+); format: binding, human; settings: Table S2, unit not given, ligand 2 μM, 100 mM NaCl, 10 mM Li cacodylate, pH 7.3, exc 440 nm, em 590 nm, triplicate
Description: as §1, §2, §3, §4

[6] = tested on: G2T1 (K+) dimeric HTelo G4 DNA; experiment: Emission titration with G2T1 (K+); format: binding, human; settings: Table S2, unit not given, ligand 2 μM, 100 mM KCl, 10 mM Li cacodylate, pH 7.3, exc 440 nm, em 590 nm, triplicate
Description: as §1, §2, §3, §4

[7] = tested on: G1 (Na+) monomeric HTelo G4 DNA; experiment: Emission titration with G1 (Na+); format: binding, human; settings: Table S2, unit not given, ligand 2 μM, 100 mM NaCl, 10 mM Li cacodylate, pH 7.3, exc 440 nm, em 590 nm, triplicate
Description: as §1, §2, §3, §4

[8] = Precipitation on addition to DNA solution (CD melting conditions); format: physicochemical; settings: CD melting concentrations: dimeric salphen 6 μM, G1 6 μM or G2Tx 3 μM; 100 mM NaCl, 10 mM Li cacodylate, pH 7.3
Description: First, circular dichroism (CD) melting experiments were carried out with compounds D1–8 and their monomeric analogues M1–2 via the combination of DNA and compound in which the ratio of salphen units to G4 external tetrads was kept at a constant ratio of 2:1, i.e., [monomeric salphen] = 12 μM, [dimeric salphen] = 6 μM, [G1] = 6 μM, and [G2Tx] = 3 μM. The CD melting experiments were conducted solely with Na^+ stabilized DNA, which forms an antiparallel topology in solution (cf., in the presence of K^+ a mixture of topologies is observed). During the assay the temperature was increased from 25 to 95 °C upon which the intensity of signals with negative ellipticity at ca. 265 nm and positive ellipticity at ca. 295 (characteristic of an antiparallel G4 structure) decreased—see Figure 4a. This indicates the expected unfolding of the G4 DNA structure as the temperature increases. […] From these curves, the ΔTm values for the different sequences and compounds were determined, and the results are summarized in Figure 4c (see Supplementary Table 1 for values).
Experiments were carried out on a Jasco J-810 spectrophotometer using a 1 cm quartz cuvette. […] The signal at 295 nm was monitored as temperature was increased for 25 to 95 °C at a rate of 2 °C/min. […]

[9] = tested on: G1 (DNA, G4) AGGGTTAGGGTTAGGGTTAGGG; experiment: CD melting at 295 nm; settings: 100 mM NaCl, 10 mM Li cacodylate, pH 7.3, 6 μM DNA
[10] = tested on: G2T6 (DNA, G4) AGGGTTAGGGTTAGGGTTAGGGTTATTATTATTATTATTAGGGTTAGGGTTAGGGTTAGGG; experiment: CD melting at 295 nm; settings: 100 mM NaCl; 10 mM Li cacodylate, pH 7.3; 6 μM compound (12 μM salphen units), 3 μM DNA

IC50 [2]: 43 µM
Compound: RRRRRRRR [Compound D8]
Association constant G2T6 (Na+), mean [1]: 0.75
Association constant G1 (K+), mean [3]: 0.84
Association constant G2T6 (K+), mean [4]: 0.38
Association constant G2T1 (Na+), mean [5]: 0.31
Association constant G2T1 (K+), mean [6]: 0.22
Association constant G1 (Na+), mean [7]: 0.47
precipitation on addition to the DNA solution [8]: caused precipitation

ΔTm ([9]; 6 μM compound (12 μM salphen units)): 5.5 °C
Compound: C[N+](C)(C)CCOc1ccc(C=Nc2ccc(C(=O)NCc3cn(CC(=O)N[C@@H](CCCCN)C(=O)N[C@@H](CCCCN)C(=O)N[C@@H](Cn4cc(CNC(=O)c5ccc(N=Cc6ccc(OCC[N+](C)(C)C)cc6[O-])c(N=Cc6ccc(OCC[N+](C)(C)C)cc6[O-])c5)nn4)C(N)=O)nn3)cc2N=Cc2ccc(OCC[N+](C)(C)C)cc2[O-])c([O-])c1.[Pt+2].[Pt+2]

ΔTm [10]: 6.4 °C
ΔTm ([9]; 6 μM compound, b22 states 1.1–1.5 °C for D1–4): 3.0 °C
Compound: C[N+](C)(C)CCOc1ccc(C=Nc2ccc(C(=O)NCc3cn(CCOCCn4cc(CNC(=O)c5ccc(N=Cc6ccc(OCC[N+](C)(C)C)cc6[O-])c(N=Cc6ccc(OCC[N+](C)(C)C)cc6[O-])c5)nn4)nn3)cc2N=Cc2ccc(OCC[N+](C)(C)C)cc2[O-])c([O-])c1.[Pt+2].[Pt+2]
